Measurements: patent US10294202B2, “Pyrrolidinones as herbicides” (FMC Corporation, priority 2013, dated 2019)

Legend:
oat, wild = test: Test C pre-/postemergence herbicide test; type: in vivo, Avena fatua
Procedure, shortened: (§1)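 Greenhouse plants scored visually against untreated controls 13–15 days after treatment, 0 = no effect, 100 = complete control. Test chemicals in a non-phytotoxic solvent with surfactant were applied either to soil (loam/sand) at planting or to foliage of 1- to 4-leaf plants, 2–18 cm tall.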

corn = test: Test A pre-/postemergence herbicide test; type: in vivo, Zea mays; details: Zea mays, 240 h, 1000 g ai/ha
Procedure, shortened: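 Visual 0–100 ratings (100 = complete control) made about 10 days after treatment, greenhouse-held plants compared with untreated controls. Treatments: postemergence sprays on one- to two-leaf plants (2–10 cm tall) and preemergence directed soil sprays after planting in loam–sand, chemicals formulated in non-phytotoxic solvent containing surfactant.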

lambsquarters = test: Test C pre-/postemergence herbicide test; type: in vivo, Chenopodium album
Procedure, shortened: as §1

ragweed = test: Test C pre-/postemergence herbicide test; type: in vivo, Ambrosia elatior
Procedure, shortened: as §1

johnsongrass = test: Test C pre-/postemergence herbicide test; type: in vivo, Sorghum halepense
Procedure, shortened: as §1

morningglory = test: Test C pre-/postemergence herbicide test; type: in vivo, Ipomoea coccinea
Procedure, shortened: as §1

soybean = test: Test C pre-/postemergence herbicide test; type: in vivo, Glycine max
Procedure, shortened: as §1

[1] = Postemergence, 31 g ai/ha, scale 0 (no effect) to 100 (complete control)
[2] = Postemergence, 62 g ai/ha, scale 0 to 100 (0 no effect, 100 complete control)
[3] = Postemergence, 125 g ai/ha, scale 0 to 100 (0 no effect, 100 complete control)
[4] = Postemergence, 250 g ai/ha, scale 0 to 100 (0 no effect, 100 complete control)
[5] = Preemergence, 62 g ai/ha, scale 0 to 100
[6] = Preemergence, 125 g ai/ha, scale 0 to 100 (0 no effect, 100 complete control)

Compound: O=C1NCC(c2ccc(F)c(F)c2)C1C(=O)Nc1cccc(F)c1F (stereo not shown) [Compound 17, N-(2,3-difluorophenyl)-4-(3,4-difluorophenyl)-2-oxo-3-pyrrolidinecarboxamide]
- Plant response rating, Oat, Wild (oat, wild; [1]): 0
- Plant response rating, Oat, Wild (oat, wild; [2]): 0
- Plant response rating, Oat, Wild (oat, wild; [3]): 0
- Plant response rating, Oat, Wild (oat, wild; [4]): 0
- Plant response rating, Oat, Wild (oat, wild; [5]): 0
- Plant response rating, Oat, Wild (oat, wild; [6]): 0
- Corn plant response rating (crop injury, 0 = no effect, 100 = complete kill) at 1000 g/ha (corn; post-emergence, Postemergence, 0 to 100 scale (0 no effect, 100 complete control)): 60%
- Corn plant response rating (crop injury, 0 = no effect, 100 = complete kill) at 1000 g/ha (corn; pre-emergence, Preemergence, visual rating on 0 to 100 scale (0 no effect, 100 complete control), approx. 10 days): 60%
- Plant response rating, Lambsquarters (lambsquarters; [1]): 0
- Plant response rating, Lambsquarters (lambsquarters; [2]): 0
- Plant response rating, Lambsquarters (lambsquarters; [3]): 0
- Plant response rating, Lambsquarters (lambsquarters; [4]): 0
- Plant response rating, Lambsquarters (lambsquarters; [5]): 60
- Plant response rating, Lambsquarters (lambsquarters; [6]): 60
- Plant response rating, Ragweed (ragweed; [1]): 0
- Plant response rating, Ragweed (ragweed; [2]): 0
- Plant response rating, Ragweed (ragweed; [3]): 0
- Plant response rating, Ragweed (ragweed; [4]): 0
- Plant response rating, Ragweed (ragweed; [5]): 0
- Plant response rating, Ragweed (ragweed; [6]): 30
- Plant response rating, Johnsongrass (johnsongrass; [1]): 0
- Plant response rating, Johnsongrass (johnsongrass; [2]): 0
- Plant response rating, Johnsongrass (johnsongrass; [3]): 0
- Plant response rating, Johnsongrass (johnsongrass; [4]): 0
- Plant response rating, Johnsongrass (johnsongrass; [5]): 5
- Plant response rating, Johnsongrass (johnsongrass; [6]): 65
- Plant response rating, Morningglory (morningglory; [1]): 0
- Plant response rating, Morningglory (morningglory; [2]): 0
- Plant response rating, Morningglory (morningglory; [3]): 0
- Plant response rating, Morningglory (morningglory; [4]): 0
- Plant response rating, Morningglory (morningglory; [5]): 0
- Plant response rating, Soybean (soybean; [1]): 0
- Plant response rating, Soybean (soybean; [2]): 0
- Plant response rating, Soybean (soybean; [3]): 0
- Plant response rating, Soybean (soybean; [4]): 0
- Plant response rating, Soybean (soybean; [5]): 0
- Plant response rating, Soybean (soybean; [6]): 0
